Common to all, as to experiment: competitive isoTOP-ABPP
Holding throughout (assay type): binding

The target in assay [1] is T1, HAUS4 HAUS augmin-like complex subunit 4 (Homo sapiens, UniProt Q9H6D7).
T1 construct: endogenous in cells; host or cells: MDA-MB-231 (soluble fraction of lysate)
T1 sequence (Q9H6D7 1-363): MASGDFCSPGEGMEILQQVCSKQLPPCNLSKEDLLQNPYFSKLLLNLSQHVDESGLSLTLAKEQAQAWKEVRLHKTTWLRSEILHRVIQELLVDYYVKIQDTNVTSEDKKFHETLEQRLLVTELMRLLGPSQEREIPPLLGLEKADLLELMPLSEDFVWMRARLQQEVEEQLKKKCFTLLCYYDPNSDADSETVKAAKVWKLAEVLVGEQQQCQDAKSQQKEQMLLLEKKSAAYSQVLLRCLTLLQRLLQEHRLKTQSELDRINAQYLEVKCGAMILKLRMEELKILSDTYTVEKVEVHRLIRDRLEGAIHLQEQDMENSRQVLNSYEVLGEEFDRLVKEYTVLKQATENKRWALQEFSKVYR
To be noted: for R value (DMSO/fragment) for probe 1 labeling: Q9H6D7_K271; for R value (DMSO/fragment) for probe 1 labeling / isoTOP-ABPP reactivity ratio at lysine Q9H6D7_K271 / isoTOP-ABPP ratio (R) at liganded lysine Q9H6D7_K271: 50 uM, in vitro; for R value (DMSO/fragment) for probe 1 labeling / isoTOP-ABPP reactivity ratio at lysine Q9H6D7_K271: 231 sol; for isoTOP-ABPP ratio (R) at liganded lysine Q9H6D7_K271: sol, 231. Summed up:
(§1)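 Readout: isotopic light/heavy MS1 peak-area ratio (R, DMSO heavy over compound light), median across peptides sharing a modified lysine. Lysate received fragment (activated esters 50 μM, guanidinylating agents 100 μM final) or DMSO, then 0.1 mM STP-alkyne probe for 1 h at ambient temperature.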

The target in assay [2] is T2, PTRF Polymerase I and transcript release factor (Homo sapiens, UniProt Q6NZI2).
T2 construct: isoTOP-ABPP experiments performed in cell lysates (in vitro); endogenous in cells; host or cells: soluble proteome of human cancer cell lines (MDA-MB-231; Ramos and Jurkat also prepared)
T2 sequence (Q6NZI2 1-390): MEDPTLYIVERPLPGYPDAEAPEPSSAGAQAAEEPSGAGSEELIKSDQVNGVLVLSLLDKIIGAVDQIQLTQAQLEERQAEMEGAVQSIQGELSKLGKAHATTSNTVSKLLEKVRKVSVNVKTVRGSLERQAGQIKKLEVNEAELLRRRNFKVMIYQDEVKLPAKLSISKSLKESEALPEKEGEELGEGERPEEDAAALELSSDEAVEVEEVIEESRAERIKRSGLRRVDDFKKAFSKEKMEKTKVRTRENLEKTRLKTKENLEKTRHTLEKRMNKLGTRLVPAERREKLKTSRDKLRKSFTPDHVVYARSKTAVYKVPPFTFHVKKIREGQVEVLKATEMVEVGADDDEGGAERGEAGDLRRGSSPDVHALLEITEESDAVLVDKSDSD
To be noted: for isoTOP-ABPP ratio (R) at liganded lysine Q6NZI2_K326: sol, 231. The gist of the method: as §1

Assay [3] has as its target T3, SFXN1 Sideroflexin-1 (Homo sapiens, UniProt Q9H9B4).
T3 construct: endogenous in cells; host or cells: MDA-MB-231 lysate
T3 sequence (Q9H9B4 1-322): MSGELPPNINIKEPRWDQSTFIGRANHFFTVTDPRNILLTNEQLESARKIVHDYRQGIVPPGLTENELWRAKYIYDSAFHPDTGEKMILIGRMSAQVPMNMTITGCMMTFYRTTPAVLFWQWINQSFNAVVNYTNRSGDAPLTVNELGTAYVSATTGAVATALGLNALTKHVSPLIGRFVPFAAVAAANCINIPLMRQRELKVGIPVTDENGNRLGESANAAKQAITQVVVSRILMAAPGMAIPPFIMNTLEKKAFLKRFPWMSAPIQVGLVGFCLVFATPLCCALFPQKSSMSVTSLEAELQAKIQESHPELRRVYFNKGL
To be noted: for isoTOP-ABPP reactivity ratio at lysine Q9H9B4_K170 / isoTOP-ABPP ratio (R) at liganded lysine Q9H9B4_K170: 50 uM, in vitro; for isoTOP-ABPP reactivity ratio at lysine Q9H9B4_K170: 231 sol; for isoTOP-ABPP ratio (R) at liganded lysine Q9H9B4_K170: sol, 231. The gist of the method: as §1

Each structure is given as a SMILES string.

On to `O=C(Oc1c(F)c(F)c(F)c(F)c1F)C(c1ccccc1)c1ccccc1` [fragment 20, Pentafluorophenyl 2,2-diphenylacetate], for which the “R value (DMSO/fragment) for probe 1 labeling” value in assay [1] is given as 0.7. Regarding `Cn1cc(CC(=O)Oc2c(F)c(F)c(F)c(F)c2F)c2ccccc21` [fragment 22, Pentafluorophenyl 2-(1-methyl-1H-indol-3-yl)acetate], the “R value (DMSO/fragment) for probe 1 labeling” value in assay [1] came to 0.9; in assay [2] (Q6NZI2_K326, 50 uM, 231 sol, in vitro), 20.0. Take `O=C(Oc1c(F)c(F)c(F)c(F)c1F)C1CCN(C(=O)OCc2ccccc2)CC1` [fragment 24, 1-Benzyl 4-(pentafluorophenyl) piperidine-1,4-dicarboxylate]: the “isoTOP-ABPP reactivity ratio at lysine Q9H6D7_K271” value in assay [1] is given as 0.8. Consider `O=C(CCc1cn(-c2ccccc2)nc1-c1ccccc1)Oc1ccc([N+](=O)[O-])cc1[N+](=O)[O-]` [fragment 29, 2,4-Dinitrophenyl 3-(1,3-diphenyl-1H-pyrazol-4-yl)propanoate], for which, in assay [2] (50 uM, 231 sol, in vitro), the “isoTOP-ABPP reactivity ratio at lysine Q6NZI2_K326” value came to 20.0. For the same molecule, the “isoTOP-ABPP reactivity ratio at lysine Q9H9B4_K170” value in assay [3] amounted to 20.0. Consider `O=C(Oc1ccc([N+](=O)[O-])cc1[N+](=O)[O-])C(c1ccccc1)c1ccccc1` [fragment 30, 2,4-Dinitrophenyl 2,2-diphenylacetate], for which the “isoTOP-ABPP reactivity ratio at lysine Q9H6D7_K271” value in assay [1] is listed as 1.0. Further, the “isoTOP-ABPP reactivity ratio at lysine Q9H9B4_K170” value in assay [3] is recorded as 4.5. On to `Cn1cc(CC(=O)Oc2ccc([N+](=O)[O-])cc2[N+](=O)[O-])c2ccccc21` [fragment 32, 2,4-Dinitrophenyl 2-(1-methyl-1H-indol-3-yl)acetate], for which the “isoTOP-ABPP reactivity ratio at lysine Q9H6D7_K271” value in assay [1] worked out at 1.0. For the same molecule, the “isoTOP-ABPP reactivity ratio at lysine Q9H9B4_K170” value in assay [3] turned out to be 8.6.

`O=C(Oc1ccc([N+](=O)[O-])cc1[N+](=O)[O-])c1ccc(-c2ccccc2)cc1` [fragment 37, 2,4-Dinitrophenyl [1,1′-biphenyl]-4-carboxylate]: in assay [1], the “isoTOP-ABPP ratio (R) at liganded lysine Q9H6D7_K271” value is recorded as 0.7. In addition, the “isoTOP-ABPP ratio (R) at liganded lysine Q6NZI2_K326” value in assay [2] (50 uM, in vitro) is reported as 20.0.

Consider `O=C(CC12CC3CC(CC(C3)C1)C2)Oc1ccc([N+](=O)[O-])cc1[N+](=O)[O-]` [fragment 38, 2,4-Dinitrophenyl 2-(adamantan-1-yl)acetate], for which the “isoTOP-ABPP ratio (R) at liganded lysine Q9H9B4_K170” value in assay [3] is given as 1.9.

Regarding `O=C(Oc1ccc([N+](=O)[O-])cc1[N+](=O)[O-])c1ccc(Oc2ccccc2)cc1` [fragment 39, 2,4-Dinitrophenyl 4-phenoxybenzoate], in assay [2] (50 uM, in vitro), the “isoTOP-ABPP ratio (R) at liganded lysine Q6NZI2_K326” value turned out to be 0.8. With `O=C(Oc1ccc([N+](=O)[O-])cc1[N+](=O)[O-])c1ccccc1Nc1cccc(C(F)(F)F)c1` [fragment 40, 2,4-Dinitrophenyl 2-((3-(trifluoromethyl)phenyl)amino)benzoate], the “isoTOP-ABPP ratio (R) at liganded lysine Q9H6D7_K271” value in assay [1] amounted to 0.7. For the same molecule, the “isoTOP-ABPP ratio (R) at liganded lysine Q6NZI2_K326” value in assay [2] (50 uM, in vitro) was determined as 20.0. As for `CC(C)(C)OC(=O)NCCCC(=O)Oc1ccc([N+](=O)[O-])cc1[N+](=O)[O-]` [fragment 41, 2,4-Dinitrophenyl 4-((tert-butoxycarbonyl)amino)butanoate], in assay [3], the “isoTOP-ABPP ratio (R) at liganded lysine Q9H9B4_K170” value was 2.5. As to `N#Cc1ccc(C(=O)Oc2ccc([N+](=O)[O-])cc2[N+](=O)[O-])cc1` [fragment 44, 2,4-Dinitrophenyl 4-cyanobenzoate], the “isoTOP-ABPP ratio, lysine Q9H6D7_K271” value in assay [1] (50 uM_231_sol_in vitro) came to 0.9. For the same molecule, the “isoTOP-ABPP ratio, lysine Q9H9B4_K170” value in assay [3] (50 uM_231_sol_in vitro) turned out to be 0.9. For `O=C(CCc1ccc2c(c1)OCO2)Oc1ccc([N+](=O)[O-])cc1[N+](=O)[O-]` [fragment 45, 2,4-Dinitrophenyl 3-(benzo[d][1,3]dioxol-5-yl)propanoate], the “isoTOP-ABPP ratio, lysine Q9H6D7_K271” value in assay [1] (50 uM_231_sol_in vitro) came out at 1.1. The “isoTOP-ABPP ratio, lysine Q6NZI2_K326” value in assay [2] (50 uM_231_sol_in vitro) is listed as 0.9. For the same molecule, the “isoTOP-ABPP ratio, lysine Q9H9B4_K170” value in assay [3] (50 uM_231_sol_in vitro) is on record as 2.1. In the case of `O=C(ON1C(=O)CCC1=O)c1cc(C(F)(F)F)cc(C(F)(F)F)c1` [fragment 46, 3,5-Bis(trifluoromethyl)benzoic acid NHS ester], the “isoTOP-ABPP ratio, lysine Q9H9B4_K170” value in assay [3] (50 uM_231_sol_in vitro) amounted to 0.9. On to `CC(C)(C)OC(=O)N=C(NC(=O)OC(C)(C)C)n1cccn1` [fragment 50, reference compound], for which the “isoTOP-ABPP ratio, lysine Q9H6D7_K271” value in assay [1] (100 uM_231_sol_in vitro) was found to be 4.3. For the same molecule, in assay [3] (100 uM_231_sol_in vitro), the “isoTOP-ABPP ratio, lysine Q9H9B4_K170” value was 1.9.

These data come from patent US20210255193A1, “LYSINE REACTIVE PROBES AND USES THEREOF” (The Scripps Research Institute, priority 2017, published 2021).
